Assay results taken from patent US20240139347A1, “COMPLEX, VASCULAR CONTRAST AGENT, X-RAY CONTRAST AGENT, METHOD FOR PRODUCING COMPLEX, AND IMAGING METHOD FOR CAPTURING STRUCTURAL CHANGE IN VESSEL” (TOHOKU UNIVERSITY, priority 2021, published 2024).

Experiment: in vivo
Details: BALB/c, mouse, iv
Source text: The complex disclosed in the present application is preferably retained in the blood until completion of X-ray CT imaging after administration and is preferably excreted by the kidneys by the time of the next X-ray CT imaging. […] As a matter of course, the half-life in blood may be shorter or longer than the above half-life in blood in the case of imaging a temporary structure instead of imaging structural change over time or using a typical X-ray CT imaging device. The half-life in blood can be adjusted by changing the type of protein or the size of the complex. The “half-life in blood” means the time it takes for the X-ray CT value of the complex to decrease by half from the maximum value after administration in vivo. However, the shortest time at which X-ray CT imaging can be started after administration of a contrast agent is about 5 minutes, and thus the measurement value at the time when X-ray CT imaging is started 5 minutes after administration of the contrast agent is defined as the “maximum value after administration in vivo” in the present specification.
Imaging was performed using a micro X-ray CT device (SkyScan1176, Bruker) under conditions of a tube voltage of 50 kV, a tube current of 500 μA, and 35 μm/voxel, 18 μm/voxel, or 9 μm/voxel. The contrast agents synthesized in Example 1 and Comparative Examples 1 and 2 were imaged in vitro. In vivo, 200 μL of each contrast agent was injected into an anesthetized mouse from the tail vein, and CT imaging was performed once or twice. Slice images were acquired using CTAn (Bruker), and volume rendered images were acquired using CTVOX. CT values were calculated by defining the value of Hounsfield Units (HU) as −1000 for air and 0 for water.
The image before the administration of the contrast agent was taken as 0 min (before injection).
FIGS. 16 and 17 show CT images of mouse hearts before and after intravenous administrations of the contrast agents. […] In addition, in FIGS. 16 and 17, the dotted line circles indicate the contour of the hearts, and the tips of the arrows (white and black) indicate the positions of the septa of the hearts.
FIG. 18 is a graph showing results of measuring changes in CT values of ventricles over time.

C[C@H](O)C(=O)Nc1c(I)c(C(=O)NC(CO)CO)c(I)c(C(=O)NC(CO)CO)c1I [iopamidol, Iopamidol]
CT value of ventricles: 72 HU | half-life: < 1 h | CT value of ventricles (5 min): 291 HU | CT value of ventricles (60 min): 130 HU | CT value of ventricles (180 min): 75 HU | CT value of ventricles (360 min): 87 HU | CT value of ventricles (24 h): 72 HU
